Results from patent publication US10323001B2, “Compositions for modulating a kinase cascade and methods of use thereof” (Athenex, Inc., priority 2006, dated 2019).
Where a name gives a salt, the structure may show the parent alone. Read-outs that look alike come from different tables or passages of the source.

Key:
Format in all cases: physicochemical
[1] = Slurry studies, 2 weeks at ambient conditions; conditions: for Form After 2 Weeks (XRPD): initial Form A
Description: After 2 weeks slurry at ambient conditions, the solids were isolated and analyzed by XRPD and HPLC. No additional forms were observed by XRPD.

[2] = Moisture-sorption analysis (Hiden IGAsorp); conditions: for Moisture Sorption Wt % Water @ 90% RH: mesylate
Protocol: Moisture-sorption experiments were performed using a Hiden IGAsorp Moisture Sorption instrument on KX2-391.MSA obtained in accordance with the process of the present invention (Example 4). First, the sample was dried at 0% Relative Humidity (RH) and 25° C. until an equilibrium weight was reached or for a maximum of four hours. The sample was then subjected to an isothermal (25° C.) adsorption scan from 10 to 90% RH in steps of 10%. The sample was allowed to equilibrate to an asymptotic weight at each point for a maximum of four hours. Following adsorption, a desorption scan from 85 to 0% RH (at 25° C.) was run in steps of −10% again allowing a maximum of four hours for equilibration to an asymptotic weight. The sample was then dried for one hour at 80° C. and the resulting solid analyzed by XRPD. […] FIG. 10 depicts percent change of water content as a function of relative humidity for KX2-391.MSA, Form A.
Moisture-sorption experiments were performed using a Hiden IGAsorp Moisture Sorption Instrument on KX2-391.2HCl obtained in accordance with the process of the present invention (Example 3). First, the sample was dried at 0% Relative Humidity (RH) and 25° C. until an equilibrium weight was reached or for a maximum of four hours. The sample was then subjected to an isothermal (25° C.) adsorption scan from 10 to 90% RH in steps of 10%. The sample was allowed to equilibrate to an asymptotic weight at each point for a maximum of four hours. Following adsorption, a desorption scan from 85 to 0% RH (at 25° C.) was run in steps of −10% again allowing a maximum of four hours for equilibration to an asymptotic weight. The sample was then dried for one hour at 80° C. and the resulting solid analyzed by XRPD.

[3] = Slurry study (acetone, DI water); conditions: Acetone slurry/RT, one and five days
Protocol: Slurry experiments were performed using acetone and DI water on KX2-391.MSA, Form A. Each vial was filled with approximately 30 mg of KX2-391.MSA, Form A and 0.5 and 1 mL of corresponding solvent, followed by stirring at room temperature for one and five days. The obtained solids were isolated by filtration, dried under vacuum at room temperature, and analyzed by HPLC and XRPD. The initial purity of KX2-391.MSA was 99.4%.

[4] = Pressure and grinding studies
[5] = Aqueous solubility study in buffers at 37° C.; conditions: overnight at 37° C.; for solubility: thermodynamic from solid
Protocol: The solubility of KX2-391 mesylate, Form A was determined in SGF (pH 2), acetate buffer (pH 4.5), and phosphate buffer (pH 7.2). Slurries of KX2-391 mesylate in the buffer solution were allowed to equilibrate overnight at 37° C. The solids were then isolated and the supernatant was diluted and analyzed by HPLC. The response of the supernatant was then compared against a calibration curve to determine the solubility.

[6] = Solubility in DI water and pH 2.0 phosphate buffer
Protocol: The table below summarizes additional characterization data for the fumaric and maleate KX2-391.MSA salts and compares it to free base, bis-HCl, and MSA salts described above. The results in the table below were obtained using the procedures described above in Examples 5 (XRPD), 6 (DSC), 7 (TGA), and 8 (moisture-sorption).
Solubility experiments were also performed using pH 2.0 phosphate buffer and DI water pH 6.9 and KX2-391.MSA, Form A. Each vial was filled with approximately 50 mg of KX2-391.MSA, Form A and 100 μL aliquots of the corresponding solvent was added until complete dissolution was observed, followed by stirring at room temperature for one and five days. The solids obtained were isolated by filtration, dried under vacuum at room temperature and analyzed by HPLC. The initial HPLC purity of KX2-391.MSA, Form A was 99.4 (% area). The solubility by HPLC of KX2-391.MSA, Form A in phosphate buffer/RT was >500 mg/mL and HPLC purity was measured to be 99.4. The solubility by HPLC of KX2-391.MSA, Form A in DI H2O/RT was >500 mg/mL and HPLC purity was measured to be 99.4.

[7] = slurry in Dioxane:water (~0.9:0.1)

**Q.** Which “HPLC Purity (AUC) after 2 weeks slurry” value ([1]; slurry in 1-butanol) does the source give for O=C(Cc1ccc(-c2ccc(OCCN3CCOCC3)cc2)cn1)NCc1ccccc1 [KX2-391.MSA, 2-(5-(4-(2-morpholinoethoxy)phenyl)pyridine-2-yl)-N-benzylacetamide mesylate] here?
**A.** >99%

**Q.** What about the “Form After 2 Weeks (XRPD)” value ([1]; slurry in 1-butanol) of the same compound?
**A.** Form A

**Q.** And the “HPLC Purity (AUC) after 2 weeks slurry” value [1, 7]?
**A.** >99%

**Q.** And the “Form After 2 Weeks (XRPD)” value [1, 7]?
**A.** Form A

**Q.** What about the “HPLC Purity (AUC) after 2 weeks slurry” value ([1]; slurry in IPA) of the same compound?
**A.** >99%

**Q.** And the “Form After 2 Weeks (XRPD)” value ([1]; slurry in IPA)?
**A.** Form A

**Q.** And the “HPLC Purity (AUC) after 2 weeks slurry” value ([1]; slurry in MeCN)?
**A.** >99%

**Q.** And the “Form After 2 Weeks (XRPD)” value ([1]; slurry in MeCN)?
**A.** Form A

**Q.** And the “HPLC Purity (AUC) after 2 weeks slurry” value ([1]; slurry in THF:water (~0.9:0.1))?
**A.** >99%

**Q.** And the “Form After 2 Weeks (XRPD)” value ([1]; slurry in THF:water (~0.9:0.1))?
**A.** Form A

**Q.** What about the “hygroscopicity by moisture sorption analysis” value ([2]; 25° C., adsorption scan 10 to 90% RH) of the same compound?
**A.** slightly-hygroscopic

**Q.** What about the “water absorbed at 60% RH” value ([2]; 60% RH, 25° C.) of the same compound?
**A.** 1.1 wt %

**Q.** And the “Moisture Sorption Wt % Water @ 90% RH” value ([2]; 25° C., listed as MSA)?
**A.** 5.7 wt %

**Q.** And the “Moisture Sorption Wt % Water @ 90% RH” value ([2]; 25° C.)?
**A.** 5.7 wt %

**Q.** What about the “XRPD pattern of material resulting from the moisture sorption experiment” value ([2]; after adsorption/desorption scans and drying one hour at 80° C.) of the same compound?
**A.** consistent with the starting form

**Q.** What about the “XRPD of solid after slurry” value [3] of the same compound?
**A.** consistent with the pattern of the initial KX2-391.MSA, Form A

**Q.** What about the “HPLC purity after slurry” value ([3]; initial 99.4%) of the same compound?
**A.** 99.3%

**Q.** What about the “effect of physical stress on the crystalline form” value [4] of the same compound?
**A.** No change in crystalline form was observed

**Q.** And the pH after slurry ([5]; SGF (pH 2.0))?
**A.** 4.5

**Q.** What about the pH after slurry ([5]; acetate (pH 4.5)) of the same compound?
**A.** 4.4

**Q.** And the solubility ([5]; acetate buffer, aqueous buffer, acetate (pH 4.5))?
**A.** 737 mg/mL

**Q.** And the pH after slurry ([5]; phosphate (pH 7.2))?
**A.** 4.3

**Q.** And the solubility ([5]; phosphate buffer, aqueous buffer, phosphate (pH 7.2))?
**A.** 150 mg/mL

**Q.** What about the solubility ([5]; simulated gastric fluid, SGF (pH 2.0)) of the same compound?
**A.** 700 mg/mL

**Q.** What about the “pH of solubility sample” value [6] of the same compound?
**A.** 4.6

**Q.** What about the “HPLC purity after solubility experiment” value ([6]; pH 2) of the same compound?
**A.** 99.4 % area

**Q.** What about the “Solubility mg/mL” value ([6]; pH 2) of the same compound?
**A.** pH 2: >500 mg/mL

**Q.** What about the “pH of solubility sample” value ([6]; pH 2) of the same compound?
**A.** (4.3)

**Q.** What about the solubility ([6]; pH 2, aqueous buffer, thermodynamic from solid) of the same compound?
**A.** > 500 mg/mL

**Q.** And the “HPLC purity after solubility experiment” value ([6]; pH 6.9)?
**A.** 99.4 % area

**Q.** And the “solubility” value ([6]; pH 6.9)?
**A.** > 500 mg/mL

**Q.** What about the solubility ([6]; pH 6.9, water, thermodynamic from solid) of the same compound?
**A.** > 500 mg/mL
